According to PMC6237811, “MutT homologue 1 (MTH1) catalyzes the hydrolysis of mutagenic O6-methyl-dGTP” (Nucleic Acids Research, 2018):

What was measured:
Assay type in all cases: biochemical
[1] = biological target: T1, human MTH1 (hMTH1, NUDT1) (Homo sapiens, UniProt P36639); assay: Michaelis-Menten kinetics of hydrolysis by purified MTH1 (PPiLight)
[2] = biological target: T1, human MTH1 (hMTH1, NUDT1); assay: Michaelis-Menten kinetics of hydrolysis by purified MTH1 (PPiLight); HPLC and LC-MS of product
zebrafish MTH1 (zfMTH1) = biological target: T2, zebrafish MTH1 (zfMTH1) (Danio rerio, UniProt Q7ZWC3); assay: hydrolysis by purified zfMTH1, malachite green and PPiLight assays
T2 construct: gene nudt1
T2 sequence (Q7ZWC3 whole entry): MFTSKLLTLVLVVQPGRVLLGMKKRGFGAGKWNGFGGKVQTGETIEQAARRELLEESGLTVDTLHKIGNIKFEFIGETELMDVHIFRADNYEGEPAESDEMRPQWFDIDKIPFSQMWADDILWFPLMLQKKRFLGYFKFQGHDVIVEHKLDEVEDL

[3] = biological target: Arabidopsis thaliana NUDT1 (atNUDT1, atNUDX1) (Arabidopsis thaliana, UniProt Q9CA40); assay: hydrolysis by […] purified enzyme, PPiLight assay, […] substrate
Arabidopsis thaliana NUDT1 (atNUDT1, atNUDX1), sequence (Q9CA40 2-147): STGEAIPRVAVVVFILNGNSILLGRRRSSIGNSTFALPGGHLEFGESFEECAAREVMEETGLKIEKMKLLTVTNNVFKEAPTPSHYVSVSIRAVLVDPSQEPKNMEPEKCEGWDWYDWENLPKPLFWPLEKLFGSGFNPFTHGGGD

[4] = biological target: T3, rat MTH1 (rnMTH1, rnNUDT1) (Rattus norvegicus, UniProt P53369); assay: as above
T3 construct: gene Nudt1

[5] = biological target: T4, mouse MTH1 (mmMTH1, mmNUDT1) (Mus musculus, UniProt P53368); assay: as above
T4 construct: gene Nudt1

| Km [1] [µM] | Km [2] [µM] | Structure (SMILES) | hydrolysis by purified zfMTH1, malachite green and PPiLight assays (zebrafish MTH1 (zfMTH1)) | hydrolysis by 1.5 nM purified enzyme, PPiLight assay, 75 μM substrate [3] | hydrolysis by 1.5 nM purified enzyme, PPiLight assay, 75 μM substrate [4] | hydrolysis by 1.5 nM purified enzyme, PPiLight assay, 75 μM substrate [5] |
| --- | --- | --- | --- | --- | --- | --- |
| 236 ± 44 |  | COc1nc(N)nc2c1ncn2[C@@H]1O[C@H](COP(=O)(O)OP(=O)(O)OP(=O)(O)O)[C@@H](O)[C@H]1O [O6-methyl-GTP] |  |  |  |  |
|  | 15.6 ± 0.2 | COc1nc(N)nc2c1ncn2[C@H]1C[C@H](O)[C@@H](COP(=O)(O)OP(=O)(O)OP(=O)(O)O)O1 [O6-methyl-dGTP] | The zfMTH1 enzyme displays considerable activity with O6-methyl-dGTP with a clear preference over dGTP | MTH1 homologues from all tested species but E. coli were found to catalyze the hydrolysis of O6-methyl-dGTP | MTH1 homologues from all tested species but E. coli were found to catalyze the hydrolysis of O6-methyl-dGTP | MTH1 homologues from all tested species but E. coli were found to catalyze the hydrolysis of O6-methyl-dGTP |
